Reference: patent publication US20230100367A1, “METHODS OF TREATING CDGSH IRON SULFUR DOMAIN 2 INSUFFICIENCY-ASSOCIATED DISORDERS” (National Yang Ming Chiao Tung University, priority 2021, published 2023)

Tested on: Cisd2 promoter with firefly luciferase reporter (HEK293-CISD2)
Assay: Cisd2-luciferase reporter assay
Format: cell-based
Details: Homo sapiens; HEK293-CISD2 cells, 24 h incubation, luciferase activity
Experimental: Compounds 1-35 were tested for increasing the level of Cisd2 in human embryonic kidney cells 293 (HEK293), a transfected cell line expressing Cisd2, using the Cisd2-luciferase reporter assay as described below.
The transfected HEK293 cells stably expressed Cisd2 promoter with firefly luciferase reporter (“HEK293-CISD2”). They were kept in Dulbecco's modified Eagle's medium (“DMEM”) (Gibco, New York, N.Y.). Culture medium was supplemented with 10% heat-inactivated fetal bovine serum (“FBS”), 2 mM L-Glutamine, 1 mM sodium pyruvate, 0.1% MEM Non-Essential Amino Acids, 1 μg/ml puromycin and 1% penicillin/streptomycin (HyClone, Logan, Utah). The cells were maintained at 37° C. in an incubator (Thermo Fisher Scientific, Waltham, Mass.) with an atmosphere of 5% CO2. The stably transfected cells were seeded in 384-well plates at a density of 3×10^3 cells/well. After incubation with a tested compound at 37° C. for 24 h, ONE-Glo™ Luciferase Assay System (Promega, Madison, Wis.) was added at room temperature for 10 minutes to detect any luciferase activity. Luminescence intensity was registered using plate reader BioTek Synergy Neo2™ (Agilent, Santa Clara, Calif.).
EC50 values in this table are presented in […] classes, i.e., A: <1 μM and B: 1 μM-10 μM.

Q: With `COC(=O)c1c(N)sc(C(=O)Nc2ccccc2C)c1C` [Compound 7, Methyl 2-amino-4-methyl-5-[(2-methylphenyl)carbamoyl]thiophene-3-carboxylate] as the molecule, how does the EC50 read?
A: The EC50 was under 1000 nM.

Q: With `Cc1ccc(NC(=O)c2sc(N)c(C(=O)OC(C)(C)C)c2C)c(C)c1` [Compound 34, tert-Butyl 2-amino-5-[(2,4-dimethylphenyl)carbamoyl]-4-methylthiophene carboxylate] as the molecule, how does the EC50 read?
A: Its EC50 is 1000 to 10000 nM.

Q: How did the EC50 turn out when `COC(=O)c1c(N)sc(C(=O)Nc2cccc(OC)c2)c1C` [Compound 20, Methyl 2-amino-5-[(3-methoxyphenyl)carbamoyl]-4-methylthiophene-3-carboxylate] was run?
A: Its EC50 is under 1000 nM.

Q: Which EC50 does the source give for `CC(=O)c1c(N)sc(C(=O)Nc2ccccc2)c1C` [Compound 31, 4-Acetyl-5-amino-3-methyl-N-phenylthiophene-2-carboxamide] here?
A: The EC50 was under 1000 nM.

Q: With `COC(=O)c1c(N)sc(C(=O)Nc2cccnc2)c1C` [Compound 3, Methyl 2-amino-4-methyl-5-(pyridin-3-ylcarbamoyl)thiophene-3-carboxylate] as the molecule, how does the EC50 read?
A: The EC50 was under 1000 nM.

Q: Which EC50 does the source give for `COC(=O)c1c(N)sc(C(=O)Nc2ccc(C)cc2C)c1Br` [Compound 23, methyl 2-amino-4-bromo-5-[(2,4-dimethylphenyl)carbamoyl]thiophene-3-carboxylate] here?
A: The EC50 was under 1000 nM.

Q: Which EC50 does the source give for `COC(=O)c1c(N)sc(C(=O)Nc2ccc(C(F)(F)F)cc2)c1C` [Compound 10, Methyl 2-amino-4-methyl-5-{-[4-(trifluoromethyl)phenyl]carbamoyl}thiophene-3-carboxylate] here?
A: The EC50 was under 1000 nM.

Q: Which EC50 does the source give for `COC(=O)c1c(N)sc(C(=O)Nc2ccc(C)cc2)c1C` [Compound 8, Methyl 2-amino-4-methyl-5-[(4-methylphenyl)carbamoyl]thiophene-3-carboxylate] here?
A: Its EC50 is under 1000 nM.

Q: With `COC(=O)c1c(N)sc(C(=O)Nc2c(C)cc(C)cc2C)c1C` [Compound 17, Methyl 2-amino-4-methyl-5-[(2,4,6-trimethylphenyl)carbamoyl]thiophene carboxylate] as the molecule, how does the EC50 read?
A: Its EC50 is 1000 to 10000 nM.

Q: With `COC(=O)c1c(N)sc(C(=O)Nc2nccs2)c1C` [Compound 19, Methyl 2-amino-4-methyl-5-(1,3-thiazol-2-ylcarbamoyl)thiophene-3-carboxylate] as the molecule, how does the EC50 read?
A: The EC50 was under 1000 nM.

Q: For `COC(=O)c1cc(C(=O)Nc2ccc(C)cc2C)sc1N` [Compound 22, Methyl 2-amino-5-[(2,4-dimethylphenyl)carbamoyl]thiophene-3-carboxylate], which EC50 is on record?
A: Its EC50 is 1000 to 10000 nM.

Q: With `COC(=O)c1c(N)sc(C(=O)Nc2cccc(C)c2)c1C` [Compound 16, Methyl 2-amino-4-methyl-5-[(3-methylphenyl)carbamoyl]thiophene-3-carboxylate] as the molecule, how does the EC50 read?
A: The EC50 was under 1000 nM.

Q: For `COC(=O)c1c(N)sc(C(=O)Nc2ccc(O)cc2)c1C` [Compound 21, methyl 2-amino-5-[(4-hydroxyphenyl)carbamoyl]-4-methylthiophene-3-carboxylate], which EC50 is on record?
A: The EC50 was under 1000 nM.

Q: Which EC50 does the source give for `COC(=O)c1c(N)sc(C(=O)Nc2ccc(N(C)C)cc2)c1C` [Compound 11, Methyl 2-amino-5-{-[4-(dimethylamino)phenyl]carbamoyl}-4-methylthiophene-3-carboxylate] here?
A: Its EC50 is under 1000 nM.

Q: For `CCOC(=O)c1c(N)sc(C(=O)Nc2ccc(C)cc2C)c1C` [Compound 25, Ethyl 2-amino-5-[(2,4-dimethylphenyl)carbamoyl]-4-methylthiophene-3-carboxylate], which EC50 is on record?
A: The EC50 was under 1000 nM.

Q: How did the EC50 turn out when `Cc1ccc(NC(=O)c2sc(N)c(C(=O)NCC#N)c2C)c(C)c1` [Compound 28, 5-amino-N^4-(cyanomethyl)-N^2-(2,4-dimethylphenyl)-3-methylthiophene-2,4-dicarboxamide] was run?
A: Its EC50 is 1000 to 10000 nM.

Q: Which EC50 does the source give for `Cc1ccc(NC(=O)c2sc(N)c(C(=O)OC(C)C)c2C)c(C)c1` [Compound 14, Propan-2-yl 2-amino-5-[(2,4-dimethylphenyl)carbamoyl]-4-methylthiophene-3-carboxylate] here?
A: Its EC50 is 1000 to 10000 nM.

Q: With `COC(=O)c1c(NC(C)=O)sc(C(=O)Nc2ccc(C)cc2C)c1C` [Compound 33] as the molecule, how does the EC50 read?
A: The EC50 was 1000 to 10000 nM.

Q: `COC(=O)c1c(N)sc(C(=O)OC(C)(C)C)c1C` [Compound 4, 2-tert-Butyl 4-methyl 5-amino-3-methylthiophene-2,4-dicarboxylate] was tested. Which EC50 did it give?
A: Its EC50 is 1000 to 10000 nM.

Q: `COC(=O)c1c(N)sc(C(=O)Nc2ccc(F)cc2)c1C` [Compound 13, Methyl 2-amino-5-[(4-fluorophenyl)carbamoyl]-4-methylthiophene-3-carboxylate] was tested. Which EC50 did it give?
A: Its EC50 is under 1000 nM.

Q: `COC(=O)c1c(N)sc(C(=O)Cc2ccc(C)cc2C)c1C` [Compound 24, methyl 2-amino-5-[(2,4-dimethylphenyl)acetyl]-4-methylthiophene-3-carboxylate] was tested. Which EC50 did it give?
A: The EC50 was 1000 to 10000 nM.

Q: `CC(=O)c1c(N)sc(C(=O)Nc2ccc(C)cc2C)c1C` [Compound 30, 4-acetyl-5-amino-N-(2,4-dimethylphenyl)-3-methylthiophene-2-carboxamide] was tested. Which EC50 did it give?
A: The EC50 was under 1000 nM.

Q: How did the EC50 turn out when `CCOC(=O)c1c(N)sc(C(=O)Nc2ccc(F)cc2)c1C` [Compound 5, Ethyl 2-amino-5-[(4-fluorophenyl)carbamoyl]-4-methylthiophene-3-carboxylate] was run?
A: Its EC50 is under 1000 nM.

Q: `COC(=O)c1c(N)sc(C(=O)Nc2ccccc2)c1C` [Compound 9, Methyl 2-amino-4-methyl-5-(phenylcarbamoyl)thiophene-3-carboxylate] was tested. Which EC50 did it give?
A: The EC50 was under 1000 nM.

Q: With `COC(=O)c1c(N)sc(C(=O)Nc2ccccc2OC)c1C` [Compound 35, Methyl 2-amino-5-[(2-methoxyphenyl)carbamoyl]-4-methylthiophene-3-carboxylate] as the molecule, how does the EC50 read?
A: Its EC50 is 1000 to 10000 nM.

Q: How did the EC50 turn out when `Cc1ccc(NC(=O)c2sc(N)c(C(=O)CO)c2C)c(C)c1` [Compound 29, 5-amino-N-(2,4-dimethylphenyl)-4-(hydroxyacetyl)-3-methylthiophene-2-carboxamide] was run?
A: The EC50 was under 1000 nM.

Q: Which EC50 does the source give for `Cc1ccc(NC(=O)c2sc(N)c(C(N)=O)c2C)c(C)c1` [Compound 12, 5-Amino-N^2-(2,4-dimethylphenyl)-3-methylthiophene-2,4-dicarboxamide] here?
A: Its EC50 is under 1000 nM.

Q: Which EC50 does the source give for `COC(=O)c1c(N)sc(C(=O)Nc2cc(OC)c(OC)c(OC)c2)c1C` [Compound 18, Methyl 2-amino-4-methyl-5-[(3,4,5-trimethoxyphenyl)carbamoyl]thiophene-3-carboxylate] here?
A: Its EC50 is 1000 to 10000 nM.

Q: Which EC50 does the source give for `COC(=O)c1c(N)sc(C(=O)Nc2ccc(C#N)cc2)c1C` [Compound 15, Methyl 2-amino-5-[(4-cyanophenyl)carbamoyl]-4-methylthiophene-3-carboxylate] here?
A: Its EC50 is under 1000 nM.

Q: For `CCOC(=O)c1cccc(NC(=O)c2sc(N)c(C(=O)OCC)c2C)c1` [Compound 26, Ethyl 2-amino-5-{[3-(ethoxycarbonyl)phenyl]carbamoyl}-4-methylthiophene-3-carboxylate], which EC50 is on record?
A: Its EC50 is 1000 to 10000 nM.

Q: Which EC50 does the source give for `COC(=O)c1c(N)sc(C(=O)Nc2ccc(OC)cc2)c1C` [Compound 6, Methyl 2-amino-5-[(4-methoxyphenyl)carbamoyl]-4-methylthiophene-3-carboxylate] here?
A: Its EC50 is under 1000 nM.

Q: How did the EC50 turn out when `Cc1ccc(NC(=O)c2sc(N)c(C(=O)O)c2C)c(C)c1` [Compound 27, 2-amino-5-[(2,4-dimethylphenyl)carbamoyl]-4-methylthiophene-3-carboxylic acid] was run?
A: The EC50 was under 1000 nM.

Q: How did the EC50 turn out when `CC(=O)c1c(N)sc(C(=O)Nc2ccc(F)cc2)c1C` [Compound 32, 4-Acetyl-5-amino-N-(4-fluorophenyl)-3-methylthiophene-2-carboxamide] was run?
A: The EC50 was under 1000 nM.

Q: Which EC50 does the source give for `Cc1ccc(NC(=O)c2sc(N)c(C#N)c2C)c(C)c1` [Compound 2, 5-Amino-4-cyano-N-(2,4-dimethylphenyl)-3-methylthiophene-2-carboxamide] here?
A: The EC50 was 1000 to 10000 nM.
